This is an account of results in US20160262923A1, “INTRAUTERINE DELIVERY SYSTEM” (BAYER OY, priority 2013, published 2016).

For series [1], the system named is Uterine bleeding. Nature of the series: Comparison study in monkey, IUS vehicle vs LNG vs NP, uterine bleeding. The series is classed as in vivo, cynomolgus macaques. Particulars: for number of bleeding days: first 7 days after insertion neglected. As for the experimental part: Animal Treatments: Adult cycling cynomolgus macaques were monitored to record regular menstrual cycles. Uterine bleeding was assessed daily by vaginal swabs (for sporadic vaginal spotting) and menstrual blood loss by vaginal tampons. After 2 menstrual cycles (˜60 days), the animals were assigned to treatment groups and laparotomized between days 6-8 (ideally day 7) of the follicular phase and an IUS was inserted by hysterotomy into the uterine lumen and sutured in place. Treatment IUS was as follows (n=5-6/group): • Group 1: Vehicle IUS • Group 2: 2 μg/day LNG • Group 3: 5 μg/day LNG • Group 4: 2 μg/day NP • Group 5: 5 μg/day NP Classification of bleeddings: Bleedings were grouped in three categories: a) positive swap or frank menses, which is the most heavy form of bleeding (BB, red colour), b) light positive swab, which is an intermediated type of bleeding (B, purple colour) and c) spot positive swab, which is a very light form of bleeding (S, orange colour). For evaluation of bleeding days, the first 7 days after insertion of the IUS were neglected, because the surgical insertion procedure already causes some bleedings in these days, which is unrelated progestin effects. FIGS. 2 and 3 and Tables 1 and 2 illustrate a comparison of 2 μg/d LNG release with 5 μg/d LNG release for 80 days with the IUS for each animal.

Series [2] relates to uterine horn. Nature of the series: Weight gain of IUS-carrying uterine horn in ovary-resected rats. The series is classed as in vivo. Particulars: E2 treated, IUS (rod) in right uterine horn. How it is done:
The local uterine action of the a.m. progestin compared to systemic side effects (dissociation) was investigated on the basis of studies using rats (see Example 4; FIGS. 4 to 6). The uterus of ovary-resected rats responded to implantation of progestin-containing IUS (rods) with decidualization and weight gain. The local progestin effects were also determined on the basis of changes in gene expression. […] The left uterine horn remained untreated for internal comparison.

Series [3] concerns IGFBP-1, Cyp26a1. The series is described as follows: Gene expression analysis of uterine tissue after IUS (rods) in rats. The series is classed as in vivo. The following applies: local administration by IUS (rods) in rats, identical release rates. How it is done:
The left uterine horn remained untreated for internal comparison.
The uterine tissue was homogenized in 800 μl of RLT lysis buffer (Qiagen, Hilden, Germany; #79216) using a Precellys24 homogenizer (Peqlab, Erlangen, Germany; 2.8 mm ceramic beads; #91-PCS-CK28, 2×6000 rpm). 400 μl of the homogenate obtained were used for isolating total RNA, using the QlAsymphony RNA kit (Qiagen, #931636) on a QlAsymphony SP robot for automated sample preparation. Reverse transcription of from 1 μg to 4 μg of total RNA was carried out using the SuperScript III first-strand synthesis system (Invitrogen, Carlsbad, USA; #18080-051) according to the random hexamer procedure.
Gene expression analysis was carried out with from 50 ng to 200 ng of cDNA per reaction on an SDS7900HT Real.time PCR system (Applied Biosystems, Carlsbad, USA) using TaqMan probes (Applied Biosystems; IGFBP-1 Rn00565713_m1, Cyp26a1 Rn00590308_m1, PPIA Rn00690933_m1) and the Fast Blue qPCR MasterMix Plus (Eurogentec, Liege, Belgium; #RT-QP2X-03+FB). For relative quantification, cyclophilin A (PPIA) was used as an endogenous control. Relative expression levels were calculated according to the comparative delta delta CT method.

Series [4] is described as follows: Progestational activity compared to LNG.
For series [5] the following is noted: in vivo.
The mark [6] stands for this setting: release rate 2 μg/d, total of 6 test animals.
The mark [7] stands for this setting: release rate 5 μg/d, total of group (LNG: 5 test animals).

With `CC[C@]12CC[C@H]3[C@@H](CCC4=CC(=O)CC[C@@H]43)[C@@H]1[C@@H]1C[C@@H]1[C@@]21CCCO1` [compound A, 18-methyl-15β,16β-methylene-19-nor-20-spirox-4-en-3-one], the “bleeding reduction compared to LNG” value in series [1] (2 μg/d NP versus 2 μg/d LNG) is “higher bleeding reduction”. The “bleeding compared to vehicle IUS group” value in series [1] (2 μg/d release group) and in series [1] (5 μg/d release group) was “marked reduction of bleeding” throughout. In addition, the “number of bleeding days” value in series [1] (setting [6]) was 4 days; in series [1] (setting [7]), “No bleeding”. Further, in series [2], the “local efficacy by way of weight gain in the IUS-carrying uterine horn” value was “dose-dependent local efficacy”. Further, the “potency in inducing gene expression relative to levonorgestrel” value in series [3] is listed as 4- to 7 fold. The “progestional activity compared to LNG” value in series [4] is given as “higher progestional activity”. Moreover, the break-down rate entry in series [5] is “very fast break-down rate”. For the same compound, in series [5], the “systemic stability / plasma clearance compared to LNG” value was “low systemic stability/higher plasma clearance”.
Consider `CC[C@]12CCC3C4CCC(=O)C=C4C4CC4C3C1[C@@H]1C[C@@H]1[C@@]21CCCO1` (stereo partly drawn) [compound B, 18-methyl-6α,7α,15β,16β-dimethylene-19-nor-20-spirox-4-en-3-one], for which the “local efficacy by way of weight gain in the IUS-carrying uterine horn” value in series [2] was “dose-dependent local efficacy”. In series [5], the break-down rate result is reported as “very fast break-down rate”.
`C#C[C@]1(O)CC[C@H]2[C@@H]3CCC4=CC(=O)CC[C@@H]4[C@H]3CC[C@@]21CC` [LNG, levonorgestrel, reference compound]: the “number of bleeding days” value is 24 days in series [1] (setting [6]) and 4 days in series [1] (setting [7]).
